Reference: ChEMBL document CHEMBL1137809, “Antifungal activity of benzoic acid derivatives from Piper lanceaefolium” (2002)
≈ marks a conversion by molar mass, not a printed value. Calls of active or inactive are those of the source. No cut-off for these calls is given here.

Key:
Candida albicans = assay: Antifungal activity against Candida albicans after 24 hrs by broth dilution assay; type: functional
Cladosporium cucumerinum = assay: Antifungal activity against Cladosporium cucumerinum at 5 ug by bioautographic TLC test; type: functional, organism-based

| Structure (SMILES) | Activity (Candida albicans) | Activity (Cladosporium cucumerinum) | MIC (Candida albicans) |
| --- | --- | --- | --- |
| COC(=O)c1cc(O)c2c(c1)C(=O)CC(C)(C)O2 | inactive |  |  |
| CC(C)=CC(=O)c1cc(C(=O)O)ccc1O | inactive | inactive |  |
| CC1(C)CC(=O)c2cc(C(=O)O)cc(O)c2O1 | inactive |  |  |
| CC(C)=CC(=O)c1cc(C(=O)O)cc(O)c1O | inactive |  |  |
| COC(=O)c1cc(O)c(O)c(C(=O)C=C(C)C)c1 [LANCEAEFOLIC ACID METHYL ESTER] |  |  | 100 µg/mL (≈ 400 µM) |
